Data published in patent US9211326B2, “Method of enhancing the proliferative phase of a primary T cell response” (Tampa Bay Research Institute, priority 2013, dated 2015).
Entries after “also recorded” stand apart in the source; their conditions may differ.

Legend:
Bcl-2 [1] = conditions: cited from earlier work
Bcl-xL mRNA = test: qPCR gene expression in lymph node cells: Bcl-xL; parameters: species or system Balb/c mice; conditions: mouse, in vivo
Vβ8+ T cells [2] = tested on: Vβ8+ T cells; parameters: species or system Balb/c mice; conditions: mouse, in vivo
Bcl-2 [3] = tested on: Bcl-2; parameters: species or system Balb/c mice; conditions: mouse, in vivo
Vβ8+ T cells [4] = tested on: Vβ8+ T cells; parameters: species or system Balb/c mice; conditions: mouse, in vivo; remark: listed apart in the source
Bcl-2 mRNA = test: qPCR gene expression in lymph node cells: Bcl-2; parameters: species or system Balb/c mice; conditions: mouse, in vivo
IFNg = tested on: IFNg; parameters: species or system Balb/c mice; conditions: mouse, in vivo
IL-12p70 = tested on: IL-12p70; parameters: species or system Balb/c mice; conditions: mouse, in vivo
Bax mRNA = tested on: Bax mRNA; parameters: species or system Balb/c mice; conditions: mouse, in vivo
IL-2 = tested on: IL-2; parameters: species or system Balb/c mice; conditions: mouse, in vivo

| Molecule | ROS induced decline in Bcl-2 (Bcl-2 [1]) | Bcl-xL mRNA level in lymph nodes (Bcl-xL mRNA) | percentage of Annexin V positive Vβ8+ T cells (Vβ8+ T cells [2]) | intracellular Bcl-2 protein per Vβ8+ T cell (Bcl-2 [3]) | numbers of CD3+/CD8+/Vβ8+ T cells (Vβ8+ T cells [4]) | Bcl-2 mRNA level in lymph nodes (Bcl-2 mRNA) | serum IFNg level (IFNg) | serum IL-12p70 level (IL-12p70) | Bax mRNA level in lymph nodes (Bax mRNA) | serum IL-2 level (IL-2) |
| --- | --- | --- | --- | --- | --- | --- | --- | --- | --- | --- |
| O=C(O)c1ccc(/C2=C3\C=CC(=N3)/C(c3ccc(C(=O)O)cc3)=c3/cc/c4[n]3[Mn]([Cl])[n]3c2ccc3/C(c2ccc(C(=O)O)cc2)=C2/C=CC(=N2)\C=4c2ccc(C(=O)O)cc2)cc1 [MnTBAP] | reversed |  |  |  |  |  |  |  |  |  |
| Staphylococcal enterotoxin B [SEB] |  | suppressed; also recorded: reduced | significantly enhanced | equally reduced amounts | remained elevated | suppressed; also recorded: reduction | significant increase | significant increase | did not appear to be significantly affected | significant increase |
